Test results: EP0745595A1, “3-(3-Aryloxyphenyl)-1-(substituted methyl)-s-triazine-2,4,6-oxo or thiotrione herbicidal agents” (American Cyanamid Company, priority 1995, dated 1996)

How the values were obtained:
Assay type in all cases: in vivo
[1] = system: ORYZA SATIVA, L. TEBONNET; assay: Rice tolerance to post-transplant applications under flooded paddy conditions, ORYSAT (Rice, Tebonnet); settings: post-transplanted rice
Outline: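 Two ten-day-old Tebonnet rice seedlings transplanted into silt loam, flooded 1.5–3 cm; three days later the water surface treated with compounds in acetone/water at about 0.5, 0.25, 0.125 and 0.063 kg/ha. Visual 0–9 injury rating versus control after 3–4 weeks in greenhouse.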

[2] = system: SETARIA VIRIDIS, (L) BEAU; assay: Postemergence herbicidal evaluation, SETVI (Foxtail, Green); design: key to SETVI rating / Herbicidal effect rating, SETVI / SETVI: 0-9 visual rating scale vs untreated control
Outline: (§1)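 Seedlings about two weeks old were sprayed with compound in 50/50 acetone/water containing 0.5% Tween 20 at about 0.125-0.500 kg/ha and kept in the greenhouse. Visual injury was rated on a 0-9 scale versus control 4-5 weeks after treatment; repeat tests were averaged.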

[3] = system: ECHINOCHLOA CRUS-GALLI, (L) BEAU; assay: Postemergence herbicidal evaluation, ECHCG (Barnyardgrass); design: key to ECHCG rating / Herbicidal effect rating, ECHCG / ECHCG: 0-9 visual rating scale vs untreated control
Outline: as §1

[4] = system: IPOMOEA SPP.; assay: Postemergence herbicidal evaluation, IPOSS (Morningglory spp.);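 also: higher means more injury with 8 approaching complete kill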
Outline: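 Seedlings of morningglory (Ipomoea spp.) were raised in jiffy flats for roughly two weeks. They were then sprayed postemergence through a nozzle at 40 psi with test compound dispersed in 50/50 acetone/water containing 0.5% TWEEN®20 surfactant. Plants were kept on greenhouse benches under standard care and visually rated 0-9 against controls four to five weeks after treatment.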

[5] = system: TRITICUM AESTIVUM, CV. APOLLO; assay: Postemergence herbicidal evaluation, TRZAWO (Wheat, Winter, CV. APOLLO);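 also: higher means more injury with 8 approaching complete kill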
Outline: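 Wheat seedlings, raised in jiffy flats for roughly two weeks, were sprayed postemergence with test compound dispersed in a 50/50 acetone/water mixture containing 0.5% TWEEN®20 surfactant, delivered through a nozzle at 40 psi. Plants were then kept on greenhouse benches under conventional care. Four to five weeks after treatment they were rated visually on a 0-9 scale against an untreated control, and ratings from repeated tests were averaged.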

[6] = system: AMBROSIA ARTEMISIIFOLIA, L.; assay: Postemergence herbicidal evaluation, AMBEL (Ragweed, Common);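 also: higher means more injury with 8 approaching complete kill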
Outline: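 Common ragweed (Ambrosia artemisiifolia) seedlings were raised in jiffy flats for roughly two weeks, then sprayed postemergence through a nozzle at 40 psi with the test compound dispersed in 50/50 acetone/water carrying 0.5% TWEEN®20. The plants were kept on greenhouse benches under conventional care. Four to five weeks later, injury was rated visually on a 0-9 scale, and repeat tests were averaged.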

[7] = system: CASSIA OBTUSIFOLIA, L.; assay: Postemergence herbicidal evaluation, CASOB (Sicklepod); design: key to CASOB rating / Herbicidal effect rating, CASOB / CASOB: 0-9 visual rating scale vs untreated control;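 also: higher means more injury with 8 approaching complete kill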
Outline: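 Two-week-old seedlings sprayed with compound in 50/50 acetone/water plus 0.5% TWEEN 20 at about 0.125–0.500 kg/ha via nozzle at 40 psi. Kept in greenhouse; rated visually 4–5 weeks after treatment on a 0–9 scale versus untreated control, averaging repeat tests.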

[8] = system: CHENOPODIUM ALBUM, L.; assay: Preemergence herbicidal evaluation, CHEAL (Lambsquarters, Common);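 also: higher means more injury with 8 approaching complete kill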
Outline: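 Injury scored visually (0–9; stand, vigor, malformation, size, chlorosis) versus untreated control, four to five weeks post-treatment. Application: aqueous acetone spray onto freshly planted soil cups, equivalent to about 0.125 to 0.50 kg/ha, plants then kept under standard greenhouse care.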

[9] = system: ZEA MAYS L.; assay: Postemergence herbicidal evaluation, ZEAMX (Corn, Field);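 also: higher means more injury with 8 approaching complete kill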
Outline: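 Corn seedlings were raised in jiffy flats for roughly two weeks, then sprayed postemergence with the test material dispersed in 50/50 acetone/water containing 0.5% TWEEN®20 surfactant, using a nozzle at 40 psi. Plants were kept on greenhouse benches under standard care and visually rated on a 0-9 scale four to five weeks after treatment.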

[10] = system: CHENOPODIUM ALBUM, L.; assay: Postemergence herbicidal evaluation, CHEAL (Lambsquarters, Common);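 also: higher means more injury with 8 approaching complete kill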
Outline: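 Seedlings of common lambsquarters (Chenopodium album) were raised in jiffy flats for roughly two weeks, then sprayed postemergence through a nozzle at 40 psi with test compound dispersed in 50/50 acetone/water containing 0.5% TWEEN®20 surfactant. Plants were kept on greenhouse benches under standard care and rated visually on a 0-9 scale versus controls.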

[11] = system: GALIUM APARINE; assay: Postemergence herbicidal evaluation, GALAP (Galium); design: key to GALAP rating / Herbicidal effect rating, GALAP / GALAP: 0-9 visual rating scale vs untreated control;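 also: higher means more injury with 8 approaching complete kill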
Outline: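 Galium (GALAP) seedlings were raised in jiffy flats for about two weeks, then sprayed with test compounds dispersed in 50/50 acetone/water containing 0.5% TWEEN®20, delivered through a nozzle at 40 psi. Plants were kept on greenhouse benches and visually rated 0-9 against a control four to five weeks later; repeat tests were averaged.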

Cn1c(=O)[nH]c(=O)n(-c2cc(Oc3c(F)cc(C(F)(F)F)cc3Cl)ccc2[N+](=O)[O-])c1=O [D, reference compound]
ORYSAT ([1]; Rate 0.031 kg/ha): 3.0
ORYSAT ([1]; Rate 0.063 kg/ha): 3.0
ORYSAT ([1]; Rate 0.125 kg/ha): 3.0
ORYSAT ([1]; Rate 0.250 kg/ha): 6.0
SETVI ([2]; Rate 0.008 kg/ha): 0.0
SETVI ([2]; Rate 0.016 kg/ha): 1.0
SETVI ([2]; Rate 0.031 kg/ha): 1.3
SETVI ([2]; Rate 0.063 kg/ha): 1.3
SETVI ([2]; Rate 0.125 kg/ha): 1.5
ECHCG ([3]; Rate 0.016 kg/ha): 3.0
ECHCG ([3]; Rate 0.031 kg/ha): 1.5
ECHCG ([3]; Rate 0.063 kg/ha): 2.0
ECHCG ([3]; Rate 0.125 kg/ha): 2.5
IPOSS ([4]; Rate 0.016 kg/ha): 7.3
IPOSS ([4]; Rate 0.031 kg/ha): 7.7
IPOSS ([4]; Rate 0.063 kg/ha): 7.3
IPOSS ([4]; Rate 0.125 kg/ha): 9.0
TRZAWO ([5]; Rate 0.016 kg/ha): 3.5
TRZAWO ([5]; Rate 0.031 kg/ha): 4.5
TRZAWO ([5]; Rate 0.063 kg/ha): 5.3
TRZAWO ([5]; Rate 0.125 kg/ha): 5.3
AMBEL ([6]; Rate 0.008 kg/ha): 5.0
AMBEL ([6]; Rate 0.016 kg/ha): 7.3
AMBEL ([6]; Rate 0.031 kg/ha): 8.0
AMBEL ([6]; Rate 0.063 kg/ha): 8.0
AMBEL ([6]; Rate 0.125 kg/ha): 8.5
CASOB ([7]; Rate 0.008 kg/ha): 1.0
CASOB ([7]; Rate 0.016 kg/ha): 4.3
CASOB ([7]; Rate 0.031 kg/ha): 5.0
CASOB ([7]; Rate 0.063 kg/ha): 6.0
CASOB ([7]; Rate 0.125 kg/ha): 9.0
CHEAL ([8]; Rate 0.031 kg/ha): 9.0
CHEAL ([8]; Rate 0.063 kg/ha): 9.0
CHEAL ([8]; Rate 0.125 kg/ha): 9.0
CHEAL ([8]; Rate 0.250 kg/ha): 9.0
ZEAMX ([9]; Rate 0.008 kg/ha): 1.0
ZEAMX ([9]; Rate 0.016 kg/ha): 3.3
ZEAMX ([9]; Rate 0.031 kg/ha): 3.3
ZEAMX ([9]; Rate 0.063 kg/ha): 4.2
ZEAMX ([9]; Rate 0.125 kg/ha): 5.5
CHEAL ([10]; Rate 0.008 kg/ha): 7.0
CHEAL ([10]; Rate 0.016 kg/ha): 7.3
CHEAL ([10]; Rate 0.031 kg/ha): 6.3
CHEAL ([10]; Rate 0.063 kg/ha): 7.0
CHEAL ([10]; Rate 0.125 kg/ha): 9.0
GALAP ([11]; Rate 0.008 kg/ha): 4.0
GALAP ([11]; Rate 0.016 kg/ha): 8.0
GALAP ([11]; Rate 0.031 kg/ha): 9.0
GALAP ([11]; Rate 0.063 kg/ha): 8.5
GALAP ([11]; Rate 0.125 kg/ha): 9.0
